Molecular target: CMP-sialic acid synthetase (NmCSS) (Neisseria meningitidis, UniProt P0A0Z8)
Assay: X-ray crystal structure
Assay type: biochemical

CMP-sialic acid synthetase (NmCSS), sequence (P0A0Z8 whole entry): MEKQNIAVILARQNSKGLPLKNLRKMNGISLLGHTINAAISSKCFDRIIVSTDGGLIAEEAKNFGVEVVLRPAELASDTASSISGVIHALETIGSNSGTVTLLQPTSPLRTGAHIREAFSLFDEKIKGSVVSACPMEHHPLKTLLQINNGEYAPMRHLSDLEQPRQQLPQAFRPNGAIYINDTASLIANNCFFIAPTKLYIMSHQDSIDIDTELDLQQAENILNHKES

Compound CC(=O)N[C@H]1[C@H]([C@H](O)[C@H](O)CO)OC(C(=O)O)=C[C@@H]1O [Neu5Ac2en, 2-deoxy-2,3-dehydro-N-acetylneuraminic acid] has an IC50 of 130 ± 10 µM.

— publication PMC7814854 (Biochemistry, 2019)
